Results from ChEMBL document CHEMBL1201862, “PubChem BioAssay data set” (2004).
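Compound exposure: 48 hours, 5 concentrations, 96-well plates. GI50 marks 50% less growth.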 Active and inactive are the calls of the source. Rule as the data show it: active = GI50 up to about 1.1 µM and inactive = higher.

Legend:
Test in all cases: NCI-60 cell line screen, 48 h
COLO 205 = tested on: COLO 205
HCT-116 = tested on: HCT-116
HCT-15 = tested on: HCT-15
HL-60 = tested on: HL-60
HOP-92 = tested on: HOP-92
HT-29 = tested on: HT-29
K562 = tested on: K562
LXFL 529 = tested on: LXFL 529
MOLT-4 = tested on: MOLT-4
NCI-H23 = tested on: NCI-H23
OVCAR-3 = tested on: OVCAR-3
OVCAR-4 = tested on: OVCAR-4
OVCAR-5 = tested on: OVCAR-5
SK-MEL-2 = tested on: SK-MEL-2
SN12C = tested on: SN12C
SR = tested on: SR
U-251 = tested on: U-251

Compound | GI50 (COLO 205) | GI50 (HCT-116) | GI50 (HCT-15) [µM] | GI50 (HL-60) | GI50 (HOP-92) | GI50 (HT-29) | GI50 (K562) | GI50 (LXFL 529) | GI50 (MOLT-4) | GI50 (NCI-H23) | GI50 (OVCAR-3) | GI50 (OVCAR-4) | GI50 (OVCAR-5) | GI50 (SK-MEL-2) | GI50 (SN12C) | GI50 (SR) | GI50 (U-251)
NC1=NS(=O)(=O)N=C(N)C1=Cc1ccc([N+](=O)[O-])o1 | 15.7 µM (inactive) | 15.4 µM (inactive) | 16.8 | 5.51 µM (inactive) | 13.8 µM (inactive) | 18.2 µM (inactive) | 6.01 µM (inactive) | 17.1 µM (inactive) | 12.6 µM (inactive) | 17.3 µM (inactive) | 18.1 µM (inactive) | 19.9 µM (inactive) | 18.9 µM (inactive) | 16.1 µM (inactive) | 16.5 µM (inactive) | 3.73 µM (inactive) | 50.8 µM (inactive)
N#[N+][c-]1c(-c2ccccc2)n[nH]c1=O | > 100 µM (inactive) | > 100 µM (inactive) | > 100 | > 100 µM (inactive) | > 100 µM (inactive) | > 100 µM (inactive) | 97.9 µM (inactive) | > 100 µM (inactive) | > 100 µM (inactive) | > 100 µM (inactive) | > 100 µM (inactive) | > 100 µM (inactive) | > 100 µM (inactive) | > 100 µM (inactive) | > 100 µM (inactive) | > 100 µM (inactive) | > 100 µM (inactive)
O=C1NC(=S)NC(=O)C1=Cc1ccc2ccccc2n1 | > 100 µM (inactive) | > 100 µM (inactive) | > 100 | > 100 µM (inactive) | > 100 µM (inactive) | > 100 µM (inactive) | > 100 µM (inactive) | > 100 µM (inactive) | > 100 µM (inactive) | > 100 µM (inactive) | > 100 µM (inactive) | > 100 µM (inactive) | > 100 µM (inactive) | > 100 µM (inactive) | > 100 µM (inactive) | > 100 µM (inactive) | > 100 µM (inactive)
Cc1cc2nc(O)c(CCC(=O)O)nc2cc1C | 70.6 µM (inactive) | > 100 µM (inactive) | > 100 | > 100 µM (inactive) | > 100 µM (inactive) | > 100 µM (inactive) | > 100 µM (inactive) | > 100 µM (inactive) | > 100 µM (inactive) | > 100 µM (inactive) | > 100 µM (inactive) | > 100 µM (inactive) | > 100 µM (inactive) | > 100 µM (inactive) | > 100 µM (inactive) | 43.4 µM (inactive) | > 100 µM (inactive)
CC(/C=C/NNC1=NN=C(c2ccccc2)C(c2ccccc2)N1)Sc1ccccc1N (configuration not stated) | 15.3 µM (inactive) | 6.14 µM (inactive) | 4.89 | 2.36 µM (inactive) | 8.39 µM (inactive) | 11 µM (inactive) | 6.24 µM (inactive) | 4.98 µM (inactive) | 3.43 µM (inactive) | 12.9 µM (inactive) | 10.3 µM (inactive) | 6.21 µM (inactive) | 17.5 µM (inactive) | 7.29 µM (inactive) | 5.79 µM (inactive) | 2.99 µM (inactive) | 2.34 µM (inactive)
Cc1ccccc1/C=C/c1csnn1 | > 100 µM (inactive) | > 44 µM (inactive) | > 42.2 | 21.1 µM (inactive) | > 100 µM (inactive) | > 100 µM (inactive) | > 100 µM (inactive) | > 100 µM (inactive) | > 100 µM (inactive) | > 100 µM (inactive) | > 100 µM (inactive) | > 100 µM (inactive) | > 100 µM (inactive) | > 100 µM (inactive) | > 100 µM (inactive) | > 100 µM (inactive) | > 100 µM (inactive)
